Patent publication US8410119B2, “Fused-aryl and heteroaryl derivatives as modulators of metabolism and the prophylaxis and treatment of disorders related thereto” (Arena Pharmaceuticals, Inc., priority 2003, dated 2013)

How the values were obtained:
RUP3 = target: T1, RUP3 (Homo sapiens, UniProt Q8TDV5); assay: RUP3 dose responses in melanophores; format: cell-based; details: melanophores transfected with RUP3 expression vector
T1 construct: read from the listing, own knowledge; expressed in transfected cells; host or cells: melanophores, electroporated with the RUP3 expression vector (pCMV)
T1 sequence (Q8TDV5 with tags, fused parts or gaps): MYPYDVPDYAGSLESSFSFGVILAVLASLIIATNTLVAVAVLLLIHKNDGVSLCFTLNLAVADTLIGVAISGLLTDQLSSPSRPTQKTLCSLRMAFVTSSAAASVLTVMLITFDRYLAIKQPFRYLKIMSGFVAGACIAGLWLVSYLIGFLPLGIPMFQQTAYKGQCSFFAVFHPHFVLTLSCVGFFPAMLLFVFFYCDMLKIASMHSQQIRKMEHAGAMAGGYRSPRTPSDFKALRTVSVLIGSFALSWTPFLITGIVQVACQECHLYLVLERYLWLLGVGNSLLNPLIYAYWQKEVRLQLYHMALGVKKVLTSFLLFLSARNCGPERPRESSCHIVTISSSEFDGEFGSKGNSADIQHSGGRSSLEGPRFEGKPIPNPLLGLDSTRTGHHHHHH
Procedure: Protocol for RUP3 Dose Responses in Melanophores
Melanophores are maintained in culture as reported by Potenza, M. N. and Lerner, M. R., in Pigment Cell Research, Vol. 5, 372-378, 1992 and transfected with the RUP3 expression vector (pCMV) using electroporation. Following electroporation, the transfected cells are plated into 96 well plates for the assay. The cells are then allowed to grow for 48 hours in order to both recover from the electroporation procedure and attain maximal receptor expression levels.
On the assay day, the growth medium on the cells is replaced with serum-free buffer containing 10 nM melatonin. The melatonin acts via an endogenous Gi-coupled GPCR in the melanophores to lower intracellular cAMP levels. In response to lowered cAMP levels, the melanophores translocate their pigment to the center of the cell. The net effect of this is a significant decrease in the absorbance reading of the cell monolayer in the well, measured at […].
After a 1-hour incubation in melatonin, the cells become completely pigment-aggregated. At this point a baseline absorbance reading is collected. Serial dilutions of test compounds are then added to the plate and compounds that stimulate RUP3 produce increases in intracellular cAMP levels. In response to these increased cAMP levels, the melanophores translocate their pigment back into the cell periphery. After one hour, stimulated cells are fully pigment-dispersed. The cell monolayer in the dispersed state absorbs much more light in the 600-650 nm range. The measured increase in absorbance compared to the baseline reading allows one to quantitate the degree of receptor stimulation and plot a dose-response curve.
The compounds in the above examples were screened using the melanophore assay.

Male Sprague Dawley rats = assay: Oral glucose tolerance test (oGTT) in rats; format: in vivo; details: rat, p.o.; for Mean % inhibition of glucose excursion: dextrose 2 g/kg, mean of six animals; for Effect on blood glucose after challenge with glucose: result in words
Procedure: In Vivo Effects of RUP3 Agonists on Glucose Homeostasis in Rats
A. Oral Glucose Tolerance Test (oGTT)
Male Sprague Dawley rats weighing approximately 200 g-250 g were fasted for 15 hours and randomly grouped (n=6) to receive a RUP3 agonist (Compounds A194, A214 or D4) at 3, 10 or 30 mg/kg. Compounds were delivered orally via a gavage needle (p.o., volume 3 mL/kg). At time 0, levels of blood glucose were assessed using a glucometer (Elite XL, Bayer), and rats were administered either vehicle (20% hydroxypropyl-beta-cyclodextrin) or test compound. Thirty minutes after administration of test compound, levels of blood glucose were again assessed, and rats were administered dextrose orally at a dose of 2 g/kg. Blood glucose measurements were then taken 30 min, 60 min, and 120 min after this time.

Compound | EC50 (RUP3) | Mean % inhibition of glucose excursion (Male Sprague Dawley rats; dose 30 mg/kg) | Effect on blood glucose after challenge with glucose (Male Sprague Dawley rats) | Mean % inhibition of glucose excursion (Male Sprague Dawley rats; dose 10 mg/kg)
CC(C)OC(=O)N1CCC(Oc2ncnc3c2cnn3-c2ccc(S(C)(=O)=O)cc2)CC1 [Compound A5, 4-[1-(4-Methanesulfonyl-phenyl)-1H-pyrazolo[3,4-d]pyrimidin-4-yloxy]-piperidine-1-carboxylic acid isopropyl ester] | 12.7 nM | – | – | –
CC(C)Oc1ccc(C(=O)N2CCC(Oc3ncnc4c3cnn4-c3ccc(S(C)(=O)=O)cc3F)CC2)nc1 [Compound A194, {4-[1-(2-Fluoro-4-methanesulfonyl-phenyl)-1H-pyrazolo[3,4-d]pyrimidin-4-yloxy]-piperidin-1-yl}-(5-isopropoxy-pyridin-2-yl)-methanone] | – | 15%, (30) | lowered blood glucose after challenge with glucose | –
CC(C)OC(=O)N1CCC(Sc2ncnc3c2cnn3-c2ccc(S(C)(=O)=O)cc2F)CC1 [Compound A214, 4-[-(2-Fluoro-4-methanesulfonyl-phenyl)-1H-pyrazolo[3,4-d]-pyrimidin-4-ylsulfanyl]-piperidine-1-carboxylic acid isopropyl ester] | – | – | lowered blood glucose after challenge with glucose | 33%, (10)
CC(C)(C)OC(=O)N1CCC(Oc2ncnc3c2ncn3-c2ccc(S(C)(=O)=O)nc2)CC1 [Compound B5, 4-[9-(6-Methanesulfonyl-pyridin-3-yl)-9H-purin-6-yloxy]-piperidine-1-carboxylic acid tert-butyl ester] | 59.1 nM | – | – | –
CC(C)(C)OC(=O)N1CCC(Oc2ncnc3c2nnn3-c2ccc(S(C)(=O)=O)cc2)CC1 [Compound C1, 4-[3-(4-Methanesulfonyl-phenyl)-3H-[1,2,3]triazolo[4,5-d]pyrimidin-7-yloxy]-piperidine-1-carboxylic acid tert-butyl ester] | 13 nM | – | – | –
CC(C)OC(=O)N1CCC(Oc2ncnc3c(-c4ccc(S(C)(=O)=O)cc4)noc23)CC1 [Compound D4, 4-[3-(4-methanesulfonyl-phenyl)-isoxazolo[4,5-d]pyrimidin-7-yloxy]-piperidine-1-carboxylic acid isopropyl ester] | – | 12%, (30) | lowered blood glucose after challenge with glucose | –
